These are literature values, as cited in patent publication US20190026423A1, “Cycle Closure Estimation of Relative Binding Affinities and Errors” (Schrödinger, LLC, priority 2013, published 2019).

The data set has as its target CDK2-cyclin A receptor (Homo sapiens, UniProt P24941). The following applies: experimental binding free energy.
Setting [1] is: 6 ligands with crystal structures.
[2] abbreviates: ligands without crystal structures.

Like-named read-outs stand apart in the source and are kept apart here.

As for `Cc1cccc(Nc2nc(OCC3CCCCC3)c3nc[nH]c3n2)c1` [Compound 1h1r], under setting [1], the “ΔG(EXP)” value was -7.67 kcal/mol. For `CS(=O)(=O)c1cccc(Nc2nc(OCC3CCCCC3)c3nc[nH]c3n2)c1` [Compound 1oiu], the “ΔG(EXP)” value under setting [1] was -9.08 kcal/mol. With `CC(=O)c1ccc(Nc2nc(OCC3CCCCC3)c3nc[nH]c3n2)cc1` [Compound 1oiy], under setting [1], the “ΔG(EXP)” value is -9.79 kcal/mol.

For the compound `Cc1cccc(Nc2nc(OCC3CCCCC3)c3nc[nH]c3n2)c1` [Compound 17], the “ΔG(EXP)” value under setting [2] was -7.04 kcal/mol. On to `CCc1cccc(Nc2nc(OCC3CCCCC3)c3nc[nH]c3n2)c1` [Compound 20], for which the “ΔG(EXP)” value under setting [2] was -8.72 kcal/mol.
